Row | melting point [°C] | Compound
1 | 82 to 84 | CON=C(C(=O)OC)c1cc(C)c(C)cc1COc1ccccc1C
2 | 129 to 134 | CNC(=O)C(=NOC)c1cc(C)c(C)cc1C(ON)=C(C)c1cccc(C(F)(F)F)c1

Reference: patent publication US20010018452A1 (published 2001)
